In patent US12459951B2, “Compounds that interact with RAS superfamily proteins for treatment of cancers, inflammatory diseases, rasopathies, and fibrotic disease” (SHY Therapeutics, LLC, priority 2022, dated 2025):

How the values were obtained:
Akt phosphorylation = experiment: Akt Phosphorylation Assay (western blot), Panc-1; type: cell-based, human; settings: at 10 μM, * = activation
In short: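 Panc-1 (KRas G12D) cells were treated with compound at 10 μM final (0.3% DMSO) for 6 h at 37 °C, or with serial dilutions for IC50. Cells were either serum-starved overnight in 0.5% FBS and then stimulated with 1.5 ng/ml EGF for 15 min, or kept in 10% FBS without stimulation. Akt Ser473 phosphorylation in lysates was read by western blot.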

Erk1/2 phosphorylation = experiment: Erk1/2 Phosphorylation Assay (western blot), Panc-1; type: cell-based, human; settings: at 10 μM, * = activation
In short: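 KRas G12D Panc-1 cells were treated 6 h at 37° C with compound at 10 μM or serial dilutions for IC50 (0.3% DMSO). In method 1, cells were serum-starved overnight (0.5% FBS) and then given 1.5 ng/ml EGF for 15 min. In method 2, cells stayed in 10% FBS without stimulation. Lysate phospho-Erk1/2 (Thr202/Tyr204) was read by western blot.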

| SMILES | % inh of Akt phosphorylation in Panc-1 (Akt phosphorylation) | % inh of Erk1/2 phosphorylation in Panc-1 (Erk1/2 phosphorylation) |
| --- | --- | --- |
| Cc1c(-c2ccn(C)n2)cn2nc(-c3nccn3C)nc(Nc3ccc(-n4ccnc4C)cn3)c12 [Compound 243, 5-Methyl-N-(5-(2-methyl-1H-imidazol-1-yl)pyridin-2-yl)-2-(1-methyl-1H-imidazol-2-yl)-6-(1-methyl-1H-pyrazol-3-yl)pyrrolo[2,1-f][1,2,4]triazin-4-amine] | D* (85-100% activation) | C* (46-84% activation) |
| Cn1ccnc1-c1nc(NS(C)(=O)=O)c2c(-c3ccccc3)c(-c3ccccc3)cn2n1 [Compound 212, N-(2-(1-Methyl-1H-imidazol-2-yl)-5,6-diphenylpyrrolo[2,1-f][1,2,4]triazin-4-yl) methanesulfonamide] | A* (1-25% activation) | B* (26-49% activation) |
| CO[C@H]1CC[C@@H](Nc2nc(-c3nccn3C)nn3cc(-c4ccncc4)c(-c4ccccc4)c23)C1 (racemic) [Compound 200, rac N-((1R,3S)-3-Methoxycyclopentyl)-2-(1-methyl-1H-imidazol-2-yl)-5-phenyl-6-(pyridin-4-yl)pyrrolo[2,1-f][1,2,4]triazin-4-amine] | B (26-49% inhibition) | D* (85-100% activation) |
| Cc1c(-c2ccn(C)n2)cn2nc(-c3nccn3C)nc(Nc3cc4c(cn3)CCO4)c12 [Compound 221, N-(5-Methyl-2-(1-methyl-1H-imidazol-2-yl)-6-(1-methyl-1H-pyrazol-3-yl)pyrrolo[2,1-f][1,2,4]triazin-4-yl)-2,3-dihydrofuro[3,2-c]pyridin-6-amine] | D* (85-100% activation) | A* (1-25% activation) |
| COc1ccnc(N(C)c2nc(-c3nccn3C)nn3cc(-c4ccn(C)n4)c(C)c23)c1 [Compound 223, N-(4-Methoxypyridin-2-yl)-N,5-dimethyl-2-(1-methyl-1H-imidazol-2-yl)-6-(1-methyl-1H-pyrazol-3-yl)pyrrolo[2,1-f][1,2,4]triazin-4-amine] | B (26-49% inhibition) | A (1-25% inhibition) |
| CO[C@H]1C[C@H](Nc2nc(-c3nccn3C)nn3cc(-c4ccncc4)c(-c4ccccc4)c23)C1 [Compound 199, N-((1r,3r)-3-Methoxycyclobutyl)-2-(1-methyl-1H-imidazol-2-yl)-5-phenyl-6-(pyridin-4-yl)pyrrolo[2,1-f][1,2,4]triazin-4-amine] | A (1-25% inhibition) | D* (85-100% activation) |
| CCOc1ccc(Nc2nc(-c3nccn3C)nn3cc(-c4ccn(C)n4)c(C)c23)nc1 [Compound 229, N-(5-Ethoxypyridin-2-yl)-5-methyl-2-(1-methyl-1H-imidazol-2-yl)-6-(1-methyl-1H-pyrazol-3-yl)pyrrolo[2,1-f][1,2,4]triazin-4-amine] | D* (85-100% activation) | A (1-25% inhibition) |
| COc1ccnc(Nc2nc(-c3nccn3C)nn3cc(-c4ccn(C)n4)c(C(=O)NC4CC4)c23)c1 [Compound 175, N-Cyclopropyl-4-((4-methoxypyridin-2-yl)amino)-2-(1-methyl-1H-imidazol-2-yl)-6-(1-methyl-1H-pyrazol-3-yl)pyrrolo[2,1-f][1,2,4]triazine-5-carboxamide] | D* (85-100% activation) | D* (85-100% activation) |
| COc1ccnc(Nc2nc(-c3nccn3C)nn3cc(-c4ccn(C)n4)c(C(=O)N4CCOCC4)c23)c1 [Compound 179, (4-((4-Methoxypyridin-2-yl)amino)-2-(1-methyl-1H-imidazol-2-yl)-6-(1-methyl-1H-pyrazol-3-yl)pyrrolo[2,1-f][1,2,4]triazin-5-yl)(morpho-lino)methanone] | D* (85-100% activation) | D* (85-100% activation) |
| CO[C@H]1C[C@H](Nc2nc(-c3nccn3C)nn3cc(-c4cnccc4C)c(-c4ccccc4)c23)C1 [Compound 218, N-((1r,3r)-3-Methoxycyclobutyl)-2-(1-methyl-1H-imidazol-2-yl)-6-(4-methylpyridin-3-yl)-5-phenylpyrrolo[2,1-f][1,2,4]triazin-4-amine] | D* (85-100% activation) | D* (85-100% activation) |
| COc1cc(Nc2nc(-c3nccn3C)nn3cc(-c4cccnc4)c(-c4cccnc4)c23)ncn1 [Compound 170, N-(6-Methoxypyrimidin-4-yl)-2-(1-methyl-1H-imidazol-2-yl)-5,6-di(pyridin-3-yl)pyrrolo[2,1-f][1,2,4]triazin-4-amine] | C* (46-84% activation) | A* (1-25% activation) |
| COCCNC(=O)c1c(-c2ccn(C)n2)cn2nc(-c3nccn3C)nc(Nc3cc(OC)ccn3)c12 [Compound 176, N-(2-Methoxyethyl)-4-((4-methoxypyridin-2-yl)amino)-2-(1-methyl-1H-imidazol-2-yl)-6-(1-methyl-1H-pyrazol-3-yl)pyrrolo[2,1-f][1,2,4]triazine-5-carboxamide] | D* (85-100% activation) | D* (85-100% activation) |
| CO[C@H]1CC[C@H](Nc2nc(-c3nccn3C)nn3cc(-c4ccn(C)n4)c(C(=O)NCCN4CCOCC4)c23)C1 (racemic) [Compound 185, rac 4-(((1S,3S)-3-methoxycyclo-pentyl)amino)-2-(1-methyl-1H-imidazol-2-yl)-6-(1-methyl-1H-pyrazol-3-yl)-N-(2-morpholino-ethyl)pyrrolo[2,1-f][1,2,4]triazine-5-carboxamide] | A (1-25% inhibition) | B (26-49% inhibition) |
| COc1ccnc(Nc2nc(-c3nccn3CCN)nn3cc(-c4ccn(C)n4)c(C)c23)c1 [Compound 188, 2-(1-(2-Aminoethyl)-1H-imidazol-2-yl)-N-(4-methoxypyridin-2-yl)-5-methyl-6-(1-methyl-1H-pyrazol-3-yl)pyrrolo[2,1-f][1,2,4]triazin-4-amine] | A* (1-25% activation) | A (1-25% inhibition) |
| COCC1CCN(c2nc(-c3ccccn3)nn3cc(-c4ccn(C(C)C)n4)c(C)c23)C1 (racemic) [Compound 10, rac 6-(1-Isopropyl-1H-pyrazol-3-yl)-4-(3-(methoxymethyl)pyrrolidin-1-yl)-5-methyl-2-(pyridin-2-yl)pyrrolo[2,1-f][1,2,4]triazine] | 0 (0% inhibition) | 0 (0% inhibition) |
| CO[C@H]1C[C@H](Nc2nc(-c3nccn3C)nn3cc(-c4ccc(CN)cc4)c(-c4ccccc4)c23)C1.Cl [Compound 206, 6-(4-(Aminomethyl)phenyl)-N-((1r,3r)-3-methoxycyclobutyl)-2-(1-methyl-1H-imidazol-2-yl)-5-phenylpyrrolo[2,1-f][1,2,4]triazin-4-amine hydrochloride salt] | C (50-84% inhibition) | B (26-49% inhibition) |
